These results are taken from US20200345725A1, “Methods and Compositions for Treating Cancer” (Omeros Corporation, priority 2019, published 2020).

In one assay the target is GPR174 (Homo sapiens, UniProt Q9BXC1). Put plainly: GPR174 signaling assays with adenosine receptor inhibitors (data not shown). The format is cell-based. More on the design: host or cells: HEK293 or CHO cell lines (ATCC). The source says:
It should be noted that the A2aR inhibitors tested belong to four distinct chemical classes and that none of them affects GPR174 signaling when tested in signaling assays (data not shown).

Another assay has as its target T1, A2bR (Homo sapiens, UniProt P29275).
T1 construct: host or cells: HEK293
T1 sequence (P29275 1-332): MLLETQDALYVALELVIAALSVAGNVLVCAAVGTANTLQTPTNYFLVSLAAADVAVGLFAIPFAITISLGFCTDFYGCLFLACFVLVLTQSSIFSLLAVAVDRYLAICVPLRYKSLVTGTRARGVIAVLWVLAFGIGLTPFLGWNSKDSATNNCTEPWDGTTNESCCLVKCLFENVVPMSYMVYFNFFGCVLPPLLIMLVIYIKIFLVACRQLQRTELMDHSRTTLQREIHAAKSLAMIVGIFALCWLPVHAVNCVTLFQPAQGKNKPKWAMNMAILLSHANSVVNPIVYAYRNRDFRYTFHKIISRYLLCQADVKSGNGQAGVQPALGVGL
Put plainly: Cre-luciferase reporter assay, HEK293 cells transfected with A2bR. The format is cell-based. The following applies: overnight incubation; read-out: A2B (IC50 nM). In general terms: In a reporter assay the amount or activity of a reporter protein is the signal.

GPR174, sequence (Q9BXC1 whole entry, species assumed): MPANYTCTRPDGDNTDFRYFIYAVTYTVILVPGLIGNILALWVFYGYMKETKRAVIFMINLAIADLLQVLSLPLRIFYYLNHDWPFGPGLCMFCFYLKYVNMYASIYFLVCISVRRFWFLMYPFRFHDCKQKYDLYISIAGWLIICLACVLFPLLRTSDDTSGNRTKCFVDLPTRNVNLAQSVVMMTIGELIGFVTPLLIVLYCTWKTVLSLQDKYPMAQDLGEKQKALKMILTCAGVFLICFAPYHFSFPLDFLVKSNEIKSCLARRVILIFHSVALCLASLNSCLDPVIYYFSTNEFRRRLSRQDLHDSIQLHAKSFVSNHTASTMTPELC

With `CCCn1c(=O)c2[nH]c(-c3ccc(OCC(=O)Nc4ccc(C#N)cc4)cc3)nc2n(CCC)c1=O` [MRS-1754], the “effect on GPR174 signaling” value at GPR174 is listed as “did not affect GPR174 signaling”.
As usually defined, the IC50 is the concentration at which inhibition is half-maximal. As for `Nc1nc(-n2cccn2)nc(-n2cccn2)c1Br` [PBF-509], on A2bR, the IC50 is 680 nM.
